# Assay results published in patent US6310090A, “Process and product for enhancing immune response in companion animals using a combination of antioxidants” (priority 2000, dated 2001).
# Columns and labels:
# [1] = test system: lymphocyte; test: lymphocyte mitogenic response to ConA and PHA, vitamin E diets; assay type: cell-based, dog (Beagle); details: 8 weeks
# Source text: Twenty young (mean age 2 years) and 20 old (mean age 9.2 years) Beagles were fed a standard commercial chicken/corn-based diet formulated to contain 27 IU/kg diet of vitamin E (NRC recommendation) (control diet) for 1 month prior to the commencement of the experiment in order to stabilize the dogs' vitamin E levels. Young and old dogs were then randomly assigned to the diets containing 27 IU/kg diet of vitamin E or 280 IU/kg diet of vitamin E for 8 weeks. Blood was collected before and after 8 weeks of dietary treatments for measurement of plasma vitamin E levels and assessment of lymphocyte mitogenic response to ConA (concanavalin A) and PHA (phytohemagglutinin).
# [2] = test system: cancer; details: supplementation alone, compared with diets high in antioxidants; cited from earlier work
# [3] = test system: immune system; test: summary of the results from each of the studies (Table 1); assay type: in vivo, dog
# [4] = test system: lymphocyte; details: rats; cited from earlier work
# [5] = test system: chemical-induced carcinogenesis; details: mice; cited from earlier work
# [6] = test system: vaccine (specific immunity); test: delayed-type hypersensitivity (DTH) against vaccine, β-carotene feeding; assay type: in vivo, dog (Beagle); details: 20 or 50 mg of β-carotene
# Experimental: (§1) The following parameters were assessed in all the animals or in the peripheral blood lymphocytes: (1) delayed-type hypersensitivity (DTH) against PHA (nonspecific immunity) and vaccine (specific immunity), (2) lymphocyte proliferation, (3) lymphocyte populations and (4) immunoglobulins (Ig).
# [7] = test system: CD4+ cells; test: lymphocyte populations, β-carotene feeding; assay type: in vivo, dog (Beagle); details: 20 or 50 mg, week 8, compared to controls
# Experimental: as §1
# [8] = test system: CD8 cells; test: lymphocyte populations, β-carotene feeding; assay type: in vivo, dog (Beagle); details: 20 mg, weeks 2 and 4
# Experimental: as §1
# [9] = test system: PHA (nonspecific immunity); test: delayed-type hypersensitivity (DTH) against PHA, β-carotene feeding; assay type: in vivo, dog (Beagle); details: 50 mg of β-carotene
# Experimental: (§2) In a fourth study, female Beagles (4 to 5 mo old) were supplemented daily with 0, 25, 50 or 100 mg of β-carotene to study the role of dietary β-carotene in enhancing the cell-mediated and humoral immune systems of the dog. The following parameters were assessed in all the animals or in the peripheral blood lymphocytes: (1) delayed-type hypersensitivity (DTH) against PHA (nonspecific immunity) and vaccine (specific immunity), (2) lymphocyte proliferation, (3) lymphocyte populations and (4) immunoglobulins (Ig).
# [10] = test system: mouse splenocytes; details: cited from earlier work
# [11] = test system: IgM; test: immunoglobulins, β-carotene feeding; assay type: in vivo, dog (Beagle); details: as early as 1 week after supplementation
# Experimental: as §2
# [12] = test system: IgG; test: immunoglobulins, β-carotene feeding; assay type: in vivo, dog (Beagle); details: as early as 1 week after supplementation
# Experimental: as §2
# [13] = test system: immunoglobulins (Ig); test: immunoglobulins / antibody levels in the blood, β-carotene feeding; assay type: in vivo, dog (Beagle)
# Experimental: FIG. 1 is a graph of antibody concentration in dogs (mg/dl) versus mg/kg diet of beta-carotene; and
# as §1
# [14] = assay type: in vivo, dog (Beagle)
# Experimental: as §2
# [15] = plasma β-carotene on daily feeding for 7 consecutive days; design: species or system dog (Beagle); details: dog, in vivo
# Experimental: (§3) Female Beagle dogs (18 to 19 months of age; 7 to 9 kg body weight) were fed a basal diet (The lams Co., Lewisburg, OH) which met or exceeded the requirement for all essential nutrients. Animals were housed indoors in light- (14 hr light; 10 hr dark) and temperature-controlled rooms. A test was conducted to study the uptake profile of β-carotene after a single oral dose of β-carotene.
# (§4) Blood plasma was separated by centrifugation and β-carotene concentrations were analyzed using high performance liquid chromatography (HPLC) as follows. All procedures were conducted under dim light. Duplicate aliquots of plasma, each leukocyte homogenate, and each leukocyte subcellular fraction were extracted with a 1:1 mixture of diethyl ether and petroleum ether in the presence of BHT. The ether phase was removed and dried under a stream of nitrogen. The residue was reconstituted in mobile phase for the HPLC determination of β-carotene. Samples (50 μl) were injected onto a 5 μm spherical C-18 reverse-phase column (3.9×150 mm; Resolve) and eluted with a 47:47:6 (v/v/v) mixture of acetonitrile, methanol, and chloroform at a flow rate of 1.0 ml/min.
# In a second study, the dogs (n=6/treatment) were fed daily at 0800 hr for 7 consecutive days with 0, 12.5, 25, 50 or 100 mg β-carotene. […] Plasma was isolated and analyzed for concentrations of β-carotene.
# [16] = uptake of β-carotene by blood neutrophils and their subcellular fractions; assay type: in vivo, dog (Beagle); details: dog, blood neutrophils, po; 50 or 100 mg daily; read-out: time of maximal uptake by blood neutrophils
# Experimental: as §3, §4
# (§5) A third study was designed to study the uptake of β-carotene in dogs by blood lymphocytes. The dogs (n=8/treatment) were fed 0, 50 or 100 mg of β-carotene daily for 30 days. Blood was sampled from all dogs via the jugular vein on days 10, 20 and 30. Blood lymphocytes and neutrophils were separated by density gradient centrifugation. Cell numbers were enumerated. Lymphocytes and neutrophils were resuspended in PBS containing 3% sodium ascorbate as an antioxidant. An aliquot of the cell suspension was sonicated for 30 seconds to disrupt the cells. The leukocyte homogenates were extracted for HPLC analysis of β-carotene.
# (§6) On day 30, a larger aliquot of blood was taken and leukocyte suspensions prepared as described above for subsequent subcellular fractionation. Cells were disrupted by sonication for 20 seconds in 5 volumes of 0.25 M sucrose. Sodium ascorbate was added as the antioxidant. The homogenate was centrifuged (600×g for 10 min at 4° C.) and the nuclear pellet separated from the supernatant. The postnuclear supernatant was centrifuged (17,300×g for 20 min at 4° C.) to separate the mitochondrial fraction. The postmitochondrial supernatant was centrifuged (102,000×g for 60 min at 4° C.) to separate the microsomal from the cytosolic fraction. Each subcellular fraction was analyzed for β-carotene content by HPLC.
# [17] = test system: blood neutrophils; test: as above; assay type: in vivo, dog (Beagle); details: dog, in vivo
# Experimental: as §3, §4, §5, §6
# [18] = test system: blood lymphocytes; design: species or system dog (Beagle); details: dog, in vivo
# Experimental: as §3, §4, §5, §6
# [19] = uptake profile of plasma β-carotene after a single oral dose; design: species or system dog (Beagle); details: dog, in vivo
# Experimental: as §3
# To study the uptake of oral β-carotene in dogs given a single dose of β-carotene orally, dogs (n=6/treatment) were given once perorally 0, 50, 100 or 200 mg of β-carotene (10% cold water dissolvable; BASF Corp., Ludwigshafen, Germany). The appropriate dose of β-carotene was dissolved in 5 ml of water fed orally by using a feeding syringe. In order to establish appropriate sampling times, two dogs were used in a preliminary study. These dogs were fed once with 50 mg β-carotene and blood sampled at 0 (immediately prior to β-carotene feeding), 3, 6, 9, 12, 15, 18, 21 and 24 hr.
# as §4
# [20] = test system: lymphocyte; test: mitogen-induced lymphocyte blastogenesis, β-carotene feeding; assay type: cell-based, dog (Beagle)
# Experimental: as §2
# [21] = test system: IL-2; test: IL-2 production, β-carotene feeding; assay type: cell-based, dog (Beagle)
# [22] = daily β-carotene supplementation
compound,measurement,setting,value
vitamin E,ConA and PHA-stimulated proliferation,[1]; dogs supplemented with 280 IU/kg diet,No such decrease was observed
same,mitogen-stimulated lymphocyte proliferation,"[1]; old dogs, 27 or 280 IU/kg diet",did not show a significant change
same,ConA and PHA-stimulated proliferation,"[1]; young dogs, 27 IU/kg diet",significant decrease
same,magnitude of protection,[2],do not provide the same magnitude of protection
same,Optimize immune cell activity (T-cells),"[3]; Table 1, Vitamin E column",.check mark.
CC1=C(/C=C/C(C)=C/C=C/C(C)=C/C=C/C=C(C)/C=C/C=C(C)/C=C/C2=C(C)C(=O)CCC2(C)C)C(C)(C)CCC1=O [canthaxanthin],lymphocyte proliferation,[4],increase lymphocyte proliferation in rats
same,chemical-induced carcinogenesis,[5],prevent chemical-induced carcinogenesis in mice
CC1=C(/C=C/C(C)=C/C=C/C(C)=C/C=C/C=C(C)/C=C/C=C(C)/C=C/C2=C(C)CCCC2(C)C)C(C)(C)CCC1 [β-carotene],DTH response to the vaccine,[6],significantly higher DTH response
same,population of CD4+ cells,[7],elevated population of CD4+ cells
same,population of CD8 cells,[8],elevated population of CD8 cells
same,DTH response to PHA challenge,[9],greatest response
same,ex vivo antibody response of mouse splenocytes to T-dependent antigens,[10],increase ex vivo antibody response
same,concentration of IgM,[11],increased significantly
same,concentration of IgG,[12],increased significantly
same,concentration of total IgG,[12]; total IgG,increased significantly
same,increases in Ig,[13]; 0 to 20 mg of β-carotene,dose dependent
same,antibody response for both Ig,[13]; 20 mg of β-carotene,consistently had the greatest antibody response
same,increase in antibody levels in the blood,"[13]; FIG. 1, addition of β-carotene to the diet",20%
same,increases in Ig,"[13]; highest level, 50 mg",did not produce a further increase
same,plasma retinol,[14]; [22],did not influence
same,plasma α-tocopherol,[14]; [22],did not influence
same,plasma β-carotene concentrations,"[14]; dog, in vivo",increased plasma β-carotene concentrations in a dose-dependent manner
same,"plasma β-carotene after the last dose, higher than after the first dose",[15],2.5-4 fold
same,Tmax,[16],≤ 240 h
same,dose effect on uptake by blood neutrophils,[17],No significant dose effect was observed
same,β-carotene in the cytosolic fraction of blood neutrophils,[17],61-68
same,β-carotene in the nuclei of blood neutrophils,[17],not detected
same,"share of total β-carotene in lymphocytes, cytosol",[18],52-62%
same,"share of total β-carotene in lymphocytes, microsomes",[18],16-23%
same,"share of total β-carotene in lymphocytes, mitochondria",[18],14-17%
same,"share of total β-carotene in lymphocytes, nuclei",[18],6-8%
same,"β-carotene concentrations in lymphocytes, 50 versus 100 mg",[18],no significant treatment difference
same,magnitude of protection,[2],do not provide the same magnitude of protection
same,"concentration of β-carotene in plasma of dogs, lower than in cats",[19],10-16 fold
same,"peak concentrations of blood β-carotene, dogs versus cats",[19]; po,occurred earlier in dogs than in cats
same,Tmax,"[19]; po, preliminary study, two dogs, 50 mg once orally, plasma, read-out: time of peak concentrations of β-carotene",3 to 6 h
same,mitogen-induced lymphocyte blastogenesis,[20],did not influence
same,IL-2 production,[21],did not influence
same,Increase antibody levels in the blood,[3]; Table 1,.check mark.
same,Optimize types of cells present in the blood,[3]; Table 1,.check mark.
same,Optimize vaccine recognition by the dog,[3]; Table 1,.check mark.
"CC1=C(/C=C/C(C)=C/C=C/C(C)=C/C=C/C=C(C)/C=C/C=C(C)/C=C/C2=C(C)C(=O)[C@@H](O)CC2(C)C)C(C)(C)C[C@H](O)C1=O [Astaxanthin, astaxanthin]",ex vivo antibody response of mouse splenocytes to T-dependent antigens,[10],increase ex vivo antibody response
